The values that follow come from patent publication US12350317B2, “Immunotherapy for the treatment and prevention of inflammatory bowel disease” (THE UAB RESEARCH FOUNDATION, priority 2019, dated 2025).

Experiment [1] concerns CBir1Tg CD4+CD44- naive T cells. Description: Naive CBir1Tg CD4+ T cell glucose uptake, viability, proliferation and Treg induction in vitro. In kind it is cell-based, mouse. How it is done:
CBir1Tg CD4^+CD44-naïve T cells were isolated from the spleen and co-cultured with irradiated antigen-presenting-cells (APCs) isolated from C57BL/6 mice, in the presence of 1 μg/ml of MEP1 with (blue) or without (red) 100 nM rapamycin. Phosphorylation of S6K in CBir1Tg CD4^+ T cells was examined after 20 hrs of stimulation. […] OVA p323-339 stimulation was used as a negative control (grey). Representative flow plots are shown in (A-D, and I), and statistics of 3 replicated experiments are shown in (E-H, and J). For in vitro and in vivo suppression assays, naïve CD4+ cells were isolated from CBir1Tg·Foxp3gfp spleen and cultured with MEP1 and rapamycin for 6 days for Treg induction. Then live CD4^+CD25^+GFP^+ Treg cells were sorted with flow cytometry as CBir1Tg iTreg Rapa. Live CD4^+CD25^+GFP^+ cells freshly isolated from naïve CBir1Tg·Foxp3gfp spleen were used as control (CBir1Tg tTreg) for suppression assay in vitro. CFSE labeled responder CD4+CD44-(Tn) cells were isolated from congenic CBir1Tg or C57BL/6 mouse and co-cultured with indicated ratios of CBir1Tg Treg cells in the presence of 1 μg/ml MEP1 or anti-mouse-CD3 and APCs for 3.5 days. Representative graphs of antigen-specific and bystander suppression are shown in (K and M), respectively, and accumulated percentage of suppression are shown in (L and N). […]

In experiment [2] the test system is microbiota flagellin-specific CD4+ T cells. Description: Survival, proliferation and cytokine production of flagellin-specific CD4+ T cells from Crohn's patients. As to conditions: for Cytokine production (IFNγ, TNFα and IL-17A) upon re-stimulation: 6-7 hours re-stimulation with APCs and Fla mix.
Description: (§2) Microbiota flagellin-specific CD4^+ T cells were labeled with proliferation dye and re-stimulated with autologous APCs plus Fla mix in the presence of 50 nM rapamycin, 1 mM metformin, or both. Phosphorylation of S6K was examined after 6 hours of stimulation (H and K), whereas CD4^+ T cell survival (I and L) and proliferation (J and M) were examined after 6-7 days.
Expanded CD154^+ antigen-specific CD4^+ T cells were re-stimulated with autologous APCs and Fla mix, Fla mix with rapamycin, Fla mix with metformin, or Fla mix with rapamycin and metformin for 6-7 hours, with BFA added for the last 4 hours. CD4^+ T cells stimulated with CD3/CD28 beads were used as a positive control, whereas cells with no antigen added were used as a negative control. The cells were then stained for cytokines (TNF and IL-17A), activation of mTOR via the downstream marker phospho-S6K and analyzed by flow cytometry.
(§3) Therefore, in order to target the metabolism of both naïve and memory CD4+ subsets, rapamycin, metformin, or both were tested, for their inhibitory effects on these cells post expansion.
Experiment [3] has as its system ribosomal protein S6 kinase. The experiment in a line: S6K phosphorylation in flagellin-specific CD4+ T cells from Crohn's patients. It counts as cell-based, human. The note with it: re-stimulation with pooled flagellin.
Description: as §2, §3
Therefore, in order to target the metabolism of both naïve and memory CD4^+ subsets, rapamycin, metformin, or both, were tested for their inhibitory effects on these cells post expansion.
Experiment [4] relates to S6 kinase (S6K). Description: S6K phosphorylation in naive CBir1Tg CD4+ T cells co-cultured with APCs and MEP1. In kind it is cell-based, mouse. As to conditions: 100 nM rapamycin, APCs and MEP1, 20 hrs. On the procedure: CBir1Tg CD4^+CD44-naïve T cells were isolated from the spleen and co-cultured with irradiated antigen-presenting-cells (APCs) isolated from C57BL/6 mice, in the presence of 1 μg/ml of MEP1 with (blue) or without (red) 100 nM rapamycin. Phosphorylation of S6K in CBir1Tg CD4^+ T cells was examined after 20 hrs of stimulation. CBir1Tg CD4^+ T cell viability, uptake of fluorescent glucose analog 2-NBDG, proliferation, and Treg induction were determined with FACS after 90 hrs of co-culture. OVA p323-339 stimulation was used as a negative control (grey). Representative flow plots are shown in (A-D, and I), and statistics of 3 replicated experiments are shown in (E-H, and J). For in vitro and in vivo suppression assays, naïve CD4+ cells were isolated from CBir1Tg·Foxp3gfp spleen and cultured with MEP1 and rapamycin for 6 days for Treg induction. Then live CD4^+CD25^+GFP^+ Treg cells were sorted with flow cytometry as CBir1Tg iTreg Rapa. Live CD4^+CD25^+GFP^+ cells freshly isolated from naïve CBir1Tg·Foxp3gfp spleen were used as control (CBir1Tg tTreg) for suppression assay in vitro. CFSE labeled responder CD4+CD44-(Tn) cells were isolated from congenic CBir1Tg or C57BL/6 mouse and co-cultured with indicated ratios of CBir1Tg Treg cells in the presence of 1 μg/ml MEP1 or anti-mouse-CD3 and APCs for 3.5 days. […]

Experiment [5] addresses DR1501 (HLA-DR15) (Homo sapiens, UniProt P01903+P01911). The experiment in a line: Flagellin peptide binding to HLA-DR (DR1501). As to conditions: <20 = high affinity, 20-100 moderate affinity. The source says:
(§1) CD4+ T cell effectors mediate colitis in mouse models. These effectors, for example, Th1 and Th17 are short-lived. The CD4+ T cell memory pool is a reservoir of chronicity and regenerating T effector cells. CD4+ TM cells are widely distributed in CBir1 TCR Tg mice (FIG. 1). Flagellin specific T cells can cause murine colitis, mainly Th17 mediated. Anti-CBir1 was detected in 50% of Crohn's patients and in multiple mouse models. The presence of anti-Cbir1 in CD patients is associated with small bowel (SB) involvement, fibrostenosis and internal perforating phenotypes, independent of anti-Saccharomyces cerevisiae antibodies (ASCA), anti-[…] antibodies and anti-OmpC antibodies. A subset of Crohn's patients has broad IgG reactivity to microbiota flagellins (FIG. 2). Flagellins have promiscuous T cell receptor epitopes. Therefore, whether microbiota flagellins contain epitope peptides that are broadly reactive in humans and can stimulate both TM and Tregs across a population of patients with Crohn's disease was studied. Peptides predicted to bind to 8 or more HLA-DRB1 molecules and to mouse H-2^b or H-2^d were studied. Thirty predicted flagellin epitopes were tested for binding to the four most common HLA-DR dimers (HLA-DR3, HLA-DR7, HLA-DR11 and HLA-DR15). All predicted flagellin epitopes bound at least one of the four HLA-DR dimers, and twenty of the predicted epitopes bound two or more.

The target of experiment [6] is DR0701 (HLA-DR7). The experiment in a line: Flagellin peptide binding to HLA-DR (DR0701). Further details: species or system human. As to conditions: <20 = high affinity, 20-100 moderate affinity.
Text: as §1

The target of experiment [7] is DR1101 (HLA-DR11) (Homo sapiens, UniProt P01903+P01911, A100R/A169T/A87E/I96F/K41T/L162R/M171V/P40S/Q125H/Q178H/Q39Y/Q99D/R42S/S66Y/T262R/V115G/W38E). The experiment in a line: Flagellin peptide binding to HLA-DR (DR1101). The note with it: <20 = high affinity, 20-100 moderate affinity.
Text: as §1

In experiment [8] the test system is donor CBir1Tg CD4+ TM cells. Description: Ablation of pre-existing antigen-specific CD4+ TM cells in C57BL/6 mice upon MEP1 challenge. In kind it is in vivo, mouse. The note with it: rapamycin 1 μg/g/day, metformin 150 μg/g/day i.p. 5 days after MEP1 challenge days 28 and 35; day 42.
Description: (§4) (A) CBir1Tg CD4^+CD44^+ TM cells were isolated from the spleen, labeled with CFSE, and co-cultured with irradiated APCs isolated from C57BL/6 mice in the presence of 1 μg/ml of MEP1, and 100 nM rapamycin, 1 mM metformin, or both. Absolute numbers of live and proliferating CD4^+ T cells post 90 hrs of culturing are shown respectively. OVA p323-339 stimulation was used as negative control. (B) Strategy of adoptive transfer, immunization, and ablation of donor CD4^+ TM cells. […] Mice without challenge and mice treated with 0.2% CMC post challenge were used as controls. Lymphocytes were isolated from the spleen on Day 42 and analyzed with FACS. Representative plots of donor/host CD4^+, donor CD4^+ TM, Treg, and Tfh are shown in (C), whereas statistics of corresponding absolute numbers are shown in (D-G).
(§5) This was tested in vivo by targeting established microbiota antigen-specific CD4+ TM cells in the periphery. […] Upon antigen challenge, on days 28 and 35, recipient mice were treated with metformin, rapamycin, the combination of both, or drug vehicle for 5 consecutive days, respectively. Recipient mice with immunization but no antigen challenge were used as controls (FIG. 10B). Assessed by the absolute numbers recovered from the spleen.
The subject of experiment [9] is CBir1Tg CD4+CD44+ TM cells. The experiment in a line: CBir1Tg CD4+ TM cells co-cultured with APCs and MEP1 in vitro. It counts as cell-based, mouse.
Description: as §4, §5

DR1101 (HLA-DR11), sequence (P01903 26-254, other chains not shown): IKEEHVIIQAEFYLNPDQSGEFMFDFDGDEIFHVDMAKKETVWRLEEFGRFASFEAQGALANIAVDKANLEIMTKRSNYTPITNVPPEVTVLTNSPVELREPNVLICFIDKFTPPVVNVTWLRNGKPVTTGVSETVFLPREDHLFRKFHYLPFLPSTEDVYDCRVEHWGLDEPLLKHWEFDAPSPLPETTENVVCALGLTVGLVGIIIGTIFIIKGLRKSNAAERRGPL

On to `CO[C@H]1C[C@@H]2CC[C@@H](C)[C@@](O)(O2)C(=O)C(=O)N2CCCC[C@H]2C(=O)O[C@H]([C@H](C)C[C@@H]2CC[C@@H](O)[C@H](OC)C2)CC(=O)[C@H](C)/C=C(\C)[C@@H](O)[C@@H](OC)C(=O)[C@H](C)C[C@H](C)/C=C/C=C/C=C/1C` [rapamycin], for which, in experiment [1] (100 nM rapamycin, in presence of cognate antigen MEP1, 90 hrs), the “Reduction of cell proliferation” value is on record as “roughly 10 fold”. Moreover, in [1] (MEP1 and rapamycin vs MEP1 alone), the “Increase of Treg cells in percentage” value was determined as 20 fold. The “Cytokine production (IFNγ, TNFα and IL-17A) upon re-stimulation” value in experiment [2] was “no effect”. Further, in [3] (50 nM rapamycin, 6 hours), the “Reduction of phosphorylation of S6K compared to antigen alone” value is listed as about 50%. The “Reduction of phosphorylation of S6 kinase (S6K)” value in experiment [4] is reported as “roughly 60%”.

For the molecule “MVVQHNLRAMNSNRMLGITQ [FlaX p1-20, Lachnospiraceae FlaX flagellin peptide 1-20]”, the “EC50 Ratio” value in experiment [5] worked out at 0.33.

Consider “MVVQHNLRAMNANRMLGIT [A4 Fla3 p1-19, Lachnospiraceae A4 Fla3 flagellin peptide 1-19]”, for which the “EC50 Ratio” value in experiment [6] worked out at 2.5; in [5] it was 0.32; in experiment [7] it was 0.2.

Turning to `CN(C)C(=N)N=C(N)N` [metformin], the “Expansion of CBir1Tg CD4+ cells after antigen challenge (absolute numbers in spleen)” value in experiment [8] is recorded as “no inhibitory result”. Moreover, the Cell death entry in experiment [2] (50 nM rapamycin or 1 mM metformin, 6-7 days) is “lesser extent of increased cell death”. In addition, the Cell proliferation entry in [2] (50 nM rapamycin, 1 mM metformin, or both, 6-7 days) is “decreased proliferation”. Also, the “Cytokine production (IFNγ, TNFα and IL-17A) upon re-stimulation” value in experiment [2] is “neither rapamycin or metformin treatment altered the cytokine production”. Further, the “Inhibitory effect on the mTOR pathway” value in [3] (1 mM metformin alone) is reported as “no inhibitory effect”. For the same molecule, the “Cell death / survival and inhibition of cell proliferation of CD4+ TM cells” value in experiment [9] is listed as “comparable effect, or even worse, than rapamycin”.

With MATEMVKYSNANILSQAGQ [CBir1 p456-475], the “EC50 Ratio” value in experiment [6] is 3.7; in [5], 0.32.
